{"source": "patent US20170137481A1", "about": "“Use of Cell-Permeable Peptide Inhibitors of the JNK Signal Transduction Pathway for the Treatment of Various Diseases” (Xigen Inflammation Ltd., priority 2014, published 2017)", "key": {"[1]": {"test_system": "rat model of diabetic nephropathy", "assay": "STZ rat model of diabetic nephropathy, chronic administration", "type": "in vivo", "conditions": "XG-102 1, 2, 4 mg/kg iv weekly; Losartan 25 mg/kg po daily", "text": "Losartan has been used as a positive control. Seventy-four male Sprague-Dawley rats (200-250 g; including 4 spare animals) from Charles River (Margate, Kent) were used. […] The diet has been purchased from Research Diets, New Jersey, USA. […] Animals have been housed in pairs throughout the study. […] During the third week of habituation, a blood sample has been taken from the lateral tail vein in the freely fed state using a hand-held glucose meter (One Touch Ultra 2). Blood sampling began at approximately 09:00. […] About 40 animals have been assigned to Cohort A and the remaining 30 to Cohort B, balanced as far as possible for body weight, plasma glucose and food and water intake. […] In all groups, food and water intake have been determined twice weekly (on the day of iv dosing and on water refill days. Blood glucose has been determined monthly. Samples were collected as detailed previously by glucometer (One Touch Ultra2). Blood samples have been taken in the freely fed state (beginning at approx. 09:00). Animals have been dosed immediately afterwards by the respective route to a timed schedule. Subsequent to dosing, each animal has been placed in a metabolism cage with free access to food and water for a 24 h period. To reduce evaporation, the glass urine collectors have been placed in a polystyrene container (Sca-online, UK) which was filled with ice. […]"}, "[2]": {"test_system": "gerbil model of transient global ischemia", "conditions": "cited from earlier work"}, "[3]": {"test_system": "primary embryonic cultures and differentiated PC12 cells", "conditions": "after trophic withdrawal; cited from earlier work"}}}
{"smiles": "CCCCc1nc(Cl)c(CO)n1Cc1ccc(-c2ccccc2-c2nn[nH]n2)cc1", "note": "[Losartan]", "values": [{"measurement": "body weight versus vehicle-treated STZ rats", "setting": "[1]", "result": "significantly lower"}]}
{"smiles": "N#CC(c1ccnc(NCCc2cccnc2)n1)c1nc2ccccc2s1", "note": "(stereo not drawn) [AS601245]", "values": [{"measurement": "delayed loss of hippocampal CA1 neurons", "setting": "[2]", "result": "significant protection against the delayed loss of hippocampal CA1 neurons"}]}
{"smiles": "CCSCc1ccc2c(c1)c1c3c(c4c5cc(CSCC)ccc5n5c4c1n2[C@H]1C[C@](O)(C(=O)OC)[C@]5(C)O1)CNC3=O", "note": "[CEP-1347]", "values": [{"measurement": "neuronal survival", "setting": "[3]", "result": "promotes neuronal survival"}]}
